Measurements taken from patent US20090047243A1, “COMBINATIONS FOR THE TREATMENT OF B-CELL PROLIFERATIVE DISORDERS” (priority 2007, published 2009).

Tests used:
Assay in all cases: Anti-proliferation assay (ATPLite, 72 h)
[1] = system: H929 multiple myeloma cell line; assay type: cell-based, human; set-up: key: S = lnfX·lnfY·ΣIdata(Idata−ILoewe), volume over Loewe additivity
Experimental: (§1) ANBL6 and INA-6 culture media was also supplemented with 10 ng/ml IL-6. […] MM.1S, MM.1R, OCI-ly10, Karpas 422, and SU-DHL6 cells were provided by the Dana Farber Cancer Institute. H929, RPMI-8226, GA-10, and Farage cells were from ATCC (Cat #'s CCL-155, CRL-9068, CRL-2392 and CRL-2630 respectively). MOLP-8, EJM, KSM-12-PE, and OPM2 were from DSMZ. The ANBL6 and INA-6 cell lines were provided by the M. D. Anderson Cancer Research Center. Compounds were prepared in DMSO at 1000× the highest desired concentration. Master plates were generated consisting of serially diluted compounds in 2- or 3-fold dilutions in 384-well format. For single agent dose response curves, the master plates consisted of 9 individual compounds at 12 concentrations in 2- or 3-fold dilutions. For combination matrices, master plates consisted of individual compounds at 6 or 9 concentrations at 2- or 3-fold dilutions. […] To obtain combination data, two master plates were diluted into the assay plates. […] Thirty microliters of ATPLite (Perkin Elmer) at room temperature was then added to each well. […] Measurements were taken at the top of the well using a luminescence aperture and a read time of 0.1 seconds per well. The percent inhibition (% I) for each well was calculated using the following formula: % I=[(avg. untreated wells-treated well)/(avg. untreated wells)]×100. […] Negative inhibition values result from local variations in treated wells as compared to untreated wells. […] The uncertainty of each fitted parameter was estimated from the range over which the change in reduced chi-squared was less than one, or less than minimum reduced chi-squared if that minimum exceeded one, to allow for underestimated σI errors. Single agent curve data were used to define a dilution series for each compound to be used for combination screening in a 6×6 matrix format. […] The Loewe additivity model was used to quantify combination effects. […] A “Synergy Score” was also used, where the Synergy Score S=log fX log fY ΣIdata(Idata-ILoewe), summed over all non-single-agent concentration pairs, and where log fX,Y is the natural logarithm of the dilution factors used for each single agent. This effectively calculates a volume between the measured and Loewe additive response surfaces, weighted towards high inhibition and corrected for varying dilution factors. An uncertainty σS was calculated for each synergy score, based on the measured errors for the Idata values and standard error propagation.

[2] = system: human multiple myeloma cells (MM.1S); assay type: cell-based; set-up: key to synergy score / synergy (score), PDEi × HE-NECA: S = lnfX·lnfY·ΣIdata(Idata−ILoewe), volume over Loewe additivity
Experimental: as §1

[3] = system: RPMI-8226 multiple myeloma cell line; assay type: cell-based, human; set-up: key: S = lnfX·lnfY·ΣIdata(Idata−ILoewe), volume over Loewe additivity
Experimental: as §1

[4] = system: human multiple myeloma cells (MM.1R); assay type: cell-based; set-up: key: S = lnfX·lnfY·ΣIdata(Idata−ILoewe), volume over Loewe additivity
Experimental: as §1

[5] = PDE inhibitor crossed with (S) ENBA, H929
[6] = PDE inhibitor crossed with Chloro-IB-MECA, H929
[7] = PDE inhibitor crossed with HE-NECA, H929
[8] = PDE inhibitor crossed with (S) ENBA, MM.1S
[9] = PDE inhibitor crossed with Chloro-IB-MECA, MM.1S
[10] = PDE inhibitor crossed with HE-NECA, MM.1S
[11] = PDE inhibitor crossed with ADAC, H929
[12] = PDE inhibitor crossed with ADAC, MM.1S
[13] = MM.1S, compared among four adenosine receptor antagonists

In the case of `CCCOc1ccccc1-c1nc2nn[nH]c2c(=O)[nH]1` [Zaprinast], the synergy score [1, 5] is reported as 0.05, the synergy score [1, 6] is reported as 0.03 and the synergy score [1, 7] is reported as 0.13. For the same compound, the synergy score [2, 8] was 0.16, the synergy score [2, 9] was 0.05 and the synergy score [2, 10] was 0.025.

In the case of `CC(C)C(=O)c1c(C(C)C)nn2ccccc12` [Ibudilast, 1-(2-isopropyl-pyrazolo[1,5-a]pyridine-3-yl)-2-methylpropan-1-one], the synergy score [1, 5] is reported as 0.21, the synergy score [1, 11] is reported as 1.04 and the synergy score [1, 6] is reported as 0.32. The synergy score [1, 7] was 0.32, the synergy score ([1]; in combination with adenosine receptor agonist CGS-21680, H929) was 1.76 and the synergy score ([1]; in combination with adenosine receptor agonist regadenoson, H929) was 1.08. For the same compound, the synergy score ([3]; in combination with adenosine receptor agonist CGS-21680, RPMI 8226) was 0.47, the synergy score ([3]; in combination with adenosine receptor agonist regadenoson, RPMI 8226) was 0.29 and the synergy score [2, 8] was 0.55. For the same compound, the synergy score [2, 12] was 0.23, the synergy score [2, 9] was 0.74 and the synergy score [2, 10] was 0.98. For the same compound, the synergy score ([2]; in combination with adenosine receptor agonist CGS-21680, MM.1S) was 2.22, the synergy score ([2]; in combination with adenosine receptor agonist regadenoson, MM.1S) was 0.37 and the synergy score ([4]; in combination with adenosine receptor agonist CGS-21680, MM.1R) was 2.29. It also gave a synergy score ([4]; in combination with adenosine receptor agonist regadenoson, MM.1R) of 1.

In the case of `CNC(=O)[C@H]1O[C@@H](n2cnc3c(NCc4cccc(I)c4)nc(Cl)nc32)[C@H](O)[C@@H]1O.COc1cc2c(cc1OC)-c1cc(=Nc3c(C)cc(C)cc3C)n(C)c(=O)n1CC2` [Cl-IB-MECA + Trequinsin], the “percent inhibition of ATP in MM.1S cells” value ([2]; after addition of 170 nM MRS 1523, Cl-IB-MECA 2.96 μM, Trequinsin conc. (μM)) is reported as 93%.

For `CNC(=O)[C@H]1O[C@@H](n2cnc3c(NCc4cccc(I)c4)nc(Cl)nc32)[C@H](O)[C@@H]1O.COc1cc2c(cc1OC)-c1cc(=Nc3c(C)cc(C)cc3C)n(C)c(=O)n1CC2` [CI-IB-MECA + Trequinsin], the “percent inhibition of ATP in MM.1S cells” value ([2]; after addition of 174 nM DPCPX, CI-IB-MECA 2.96 μM, Trequinsin conc. (μM)) was 94% and the “percent inhibition of ATP in MM.1S cells” value ([2]; no adenosine receptor antagonist added, CI-IB-MECA 1.48 μM, Trequinsin conc. (μM)) was 93%.

In the case of `CCCCC#Cc1nc(N)c2ncn([C@@H]3O[C@H](C(=O)NCC)[C@@H](O)[C@H]3O)c2n1.COc1cc2c(cc1OC)-c1cc(=Nc3c(C)cc(C)cc3C)n(C)c(=O)n1CC2` [HE-NECA + Trequinsin], the “percent inhibition of ATP in MM.1S cells” value ([2]; 10 ng/mL IL-6, Trequinsin 3.39 μM, HE-NECA conc. (nM)) is reported as 94%, the “percent inhibition of ATP in MM.1S cells” value ([2]; 10 ng/mL IL-6, Trequinsin 30.5 μM, HE-NECA conc. (nM)) is reported as 100% and the “percent inhibition of ATP in MM.1S cells” value ([2]; no IL-6, Trequinsin 30.5 (unit not given), HE-NECA conc. (nM)) is reported as 98%.

For `OCCN(CCO)c1nc(N2CCCCC2)c2nc(N(CCO)CCO)nc(N3CCCCC3)c2n1` [Dipyridamole, 2-{[9-(bis(2-hydroxyethyl)amino)-2,7-bis(1-piperidyl)-3,5,8,10-tetrazabicyclo[4.4.0]deca-2,4,7,9,11-pentaen-4-yl]-(2-hydroxyethyl)amino}ethanol], the synergy score [1, 5] was 0.26, the synergy score [1, 11] was 2.05 and the synergy score [1, 6] was 0.08. It also gave a synergy score [1, 7] of 0.13, a synergy score ([1]; in combination with adenosine receptor agonist ADAC, H929) of 2.05 and a synergy score ([3]; in combination with adenosine receptor agonist ADAC, RPMI-8226) of 0.62. It also gave a synergy score [2, 8] of 0.17, a synergy score [2, 12] of 1.18 and a synergy score [2, 9] of 0.20. For the same compound, the synergy score [2, 10] was 0.08, the synergy score ([2]; in combination with adenosine receptor agonist ADAC, MM.1S) was 1.18 and the synergy score ([4]; in combination with adenosine receptor agonist ADAC, MM.1R) was 1.34.

In the case of `COc1cc2c(cc1OC)-c1cc(=Nc3c(C)cc(C)cc3C)n(C)c(=O)n1CC2.NCCNC(=O)Cc1ccc(NC(=O)Cc2ccc(Nc3ncnc4c3ncn4[C@@H]3O[C@H](CO)[C@@H](O)[C@H]3O)cc2)cc1` [ADAC + Trequinsin], the “percent inhibition of ATP in MM.1S cells” value ([2]; 10 ng/mL IL-6, ADAC 1.17 μM, Trequinsin conc. (μM)) is reported as 94%, the “percent inhibition of ATP in MM.1S cells” value ([2]; 10 ng/mL IL-6, ADAC 3.51 μM, Trequinsin conc. (μM)) is reported as 93% and the “percent inhibition of ATP in MM.1S cells” value ([2]; 10 ng/mL IL-6, ADAC 10.5 μM, Trequinsin conc. (μM)) is reported as 93%. For the same compound, the “percent inhibition of ATP in MM.1S cells” value ([2]; 10 ng/mL IL-6, ADAC 31.6 μM, Trequinsin conc. (μM)) was 93% and the “percent inhibition of ATP in MM.1S cells” value ([2]; 10 ng/mL IL-6, ADAC […], Trequinsin conc. (μM)) was 95%.

In the case of `Nc1nc2c(cnn2CCc2ccccc2)c2nc(-c3ccco3)nn12` [SCH 58261], the “blocking of chloro-IB-MECA antiproliferative activity” value ([2]; MM.1S, 72 h, antagonist SCH 58261 at 78 nM) is reported as over 50%, the “antagonist effect on (S)-ENBA inhibition of cell growth” value ([2]; MM.1S, 72 h, SCH 58261 78 nM, MRS 1523 183 nM, DPCPX 178 nM, MRS 1574 175 nM) is reported as “most active of the antagonists” and the “blocking of chloro-IB-MECA antiproliferative activity” value ([2]; MM.1S, antagonist concentration increased 2-fold) is reported as over 70%. The “antagonist effect on chloro-IB-MECA crossed with trequinsin” value [2, 13] was “most active compound” and the “antagonist effect on synergy of (S)-ENBA crossed with trequinsin” value [2, 13] was “most active compound”.

For `CCCc1nn(C)c2c(=O)[nH]c(-c3cc(S(=O)(=O)N4CCN(C)CC4)ccc3OCC)nc12` [Sildenafil], the synergy score [1, 5] was 0.03, the synergy score [1, 11] was 0.14 and the synergy score [1, 6] was 0.03. For the same compound, the synergy score [1, 7] was 0, the synergy score [2, 8] was 0 and the synergy score [2, 12] was 0. The synergy score [2, 9] was 0 and the synergy score [2, 10] was 0.

In the case of `C[C@@H]1C[C@H]2[C@@H]3CCC4=CC(=O)C=C[C@]4(C)[C@@]3(F)[C@@H](O)C[C@]2(C)[C@@]1(O)C(=O)CO` [dexamethasone], the IC50 ([2]; Homo sapiens, MM1.S, 72 h, MM.1S, 72 h, +IL-6 (10 ng/ml)) is reported as 61.7 nM, the IC50 ([2]; Homo sapiens, MM1.S, 72 h, MM.1S, no IL-6) is reported as 179 nM and the “change in IC50 when cultured in the presence of IL-6” value ([2]; MM.1S, 10 ng/ml IL-6 vs no IL-6) is reported as 2.9 fold.

`CCCCC#Cc1nc(N)c2ncn([C@@H]3O[C@H](C(=O)NCC)[C@@H](O)[C@H]3O)c2n1.COc1ccc(Cc2nccc3cc(OC)c(OC)cc23)cc1OC` [HE-NECA + Papaverine] was tested, and the “percent inhibition of ATP in MM.1S cells” value ([2]; 10 ng/mL IL-6, Papaverine 20.7 μM, HE-NECA conc. (μM)) was 97% and the “percent inhibition of ATP in MM.1S cells” value ([2]; no IL-6, Papaverine 20.7 μM, HE-NECA conc. (nM)) was 95%.

In the case of `CCCn1c(=O)c2[nH]c(C3CCCC3)nc2n(CCC)c1=O` [DPCPX, 8-cyclopentyl-1,3-dipropylxanthine], the inhibition at 0.174 µM ([2]; Homo sapiens, MM1.S, after addition of 174 nM DPCPX, CI-IB-MECA 0 μM, Trequinsin conc. (μM), read-out: Percent inhibition of ATP in MM.1S cells) is reported as -7.5%.

In the case of `CCCn1c(=O)c2[nH]c(-c3ccc(OCC(=O)Nc4ccc(C#N)cc4)cc3)nc2n(CCC)c1=O` [MRS 1574], the inhibition at 0.175 µM ([2]; Homo sapiens, MM1.S, after addition of 175 nM MRS 1754, Cl-IB-MECA 0 μM, Trequinsin conc. (μM), read-out: Percent inhibition of ATP in MM.1S cells) is reported as -13%.
